# Assay results from PMC7898822, “RNA‐PROTACs: Degraders of RNA‐Binding Proteins” (Angewandte Chemie (International Ed. in English), 2020).
# Tests used:
# Assay type in all cases: cell-based, human
# Lin28A [1] = test: Western blot of Lin28A in K562 cells
# From the text: (§1) Finally, we tested RNA‐PROTACs for their ability to degrade their target in two cell lines: the embryonic NT2/D1 cell line, which expresses high levels of Lin28A, ^[13a] and K562 cells which express Lin28A and Lin28B. […] Finally, we co‐treated K562 cells with ORN3P1 and MG132, a reversible inhibitor of the 26S proteasome. […] In order to explore the versatility of RNA‐PROTACs with non peptide‐based VHL ligands, we conjugated small‐molecule VH032 ^[38] to ORN3 via an amino linker to yield ORN3VH032 (Figure S1). […]
# Lin28A [2] = test: Western blot of Lin28A in NT2/D1 cells; details: 2 μM, three independent experiments
# From the text: as §1
# Lin28B = test: Western blot of Lin28B in K562 cells; details: 48 h
# From the text: Finally, we tested RNA‐PROTACs for their ability to degrade their target in two cell lines: the embryonic NT2/D1 cell line, which expresses high levels of Lin28A, ^[13a] and K562 cells which express Lin28A and Lin28B. […] Suppression of the target was not quantitative, as is often observed from testing PROTAC reagents without an optimization of the targeting ligand, the linker and the E3 system. Furthermore, there was no statistical difference in the activity of the 7‐mer and 11‐mer reagents. […] The reagents had no discernible effect on cell toxicity (Figure S11). […] Finally, we co‐treated K562 cells with ORN3P1 and MG132, a reversible inhibitor of the 26S proteasome. […]
# oligonucleotides ([…]) into 15N-labeled Lin28-ZnF12 in 10 mM HEPES pH 7.0, 1.5 mM β-mercaptoethanol, 0.15 mM ZnCl2 and monitored by 1H-15N-HSQC at 303K.
# Fluorescence Polarization Assay. Fluorescence polarization titration assay was carried out by titrating Lin28_ZKD protein into FAM-labeled PreE-let-7 at a 10 nM final concentration and buffer (10 mM HEPES, 150 mM NaCl, 10 µM ZiCl2, pH 7,4). […] The fluorescence anisotropy was measured on a Spectra Max Paradigm multimode plate reader (Molecular Devices). The fluorescence polarization competition assay was carried out in a similar fashion, except compounds were titrated into buffer containing Lin28_ZKD and FAM-labeled preE-let-7. […]
smiles,measurement,setting,value
CC[C@H](C)[C@H](NC(=O)[C@H](Cc1ccc(O)cc1)NC(=O)[C@@H]1C[C@@H](O)CN1C(=O)[C@H](C)NC(=O)[C@H](CC(C)C)NC(=O)CCCCCNC(=O)[C@@H](N)CSC1CC(=O)N(CCOP(=O)(S)OC[C@H]2O[C@@H](n3cnc4c(N)ncnc43)[C@H](OCCOC)[C@@H]2OP(=O)(S)OC[C@H]2O[C@@H](n3cnc4c(=O)[nH]c(N)nc43)[C@H](OCCOC)[C@@H]2OP(=O)(S)OC[C@H]2O[C@@H](n3cnc4c(=O)[nH]c(N)nc43)[C@H](OCCOC)[C@@H]2OP(=O)(S)OC[C@H]2O[C@@H](n3cnc4c(N)ncnc43)[C@H](OCCOC)[C@@H]2OP(=O)(S)OC[C@H]2O[C@@H](n3cnc4c(=O)[nH]c(N)nc43)[C@H](OCCOC)[C@@H]2OP(=O)(S)OC[C@H]2O[C@@H](n3cnc4c(N)ncnc43)[C@H](OCCOC)[C@@H]2OP(=O)(S)OC[C@H]2O[C@@H](n3cc(C)c(=O)[nH]c3=O)[C@H](OCCOC)[C@@H]2O)C1=O)C(=O)O (stereo partly shown) [ORN3P1],Lin28A suppression with MG132 co-treatment,"Lin28A [1]; K562 cells co-treated with 100 nM MG132, 48 h",largely attenuated Lin28A suppression
same,suppression of Lin28A,"Lin28A [1]; K562 cells, highest concentration, 48 h, western blot, three independent experiments",50%
same,reduction of Lin28A,Lin28A [2],~50%
same,effect on Lin28B,Lin28B,little effect on Lin28B
